Among the data in patent US20190275012A9, “SUBSTITUTED THIAZOLO-PYRIDINE COMPOUNDS AS MALT1 INHIBITORS” (Lupin Limited, priority 2016, published 2019) are IC50 values, retold here.

As a reminder, the IC50 is the point on the concentration scale where inhibition reaches its midpoint.

The test system of experiment [1] is NF-kB transcriptional activity in HEK-293-NF-kB-Luc cell line overexpressing MALT1. The experiment in a line: NF-kB reporter assay (luciferase, MALT1 stably overexpressed). The class given is cell-based. The note with it: Homo sapiens, 24 h, HEK-293-NF-kB-Luc cells stably overexpressing MALT1, 24 h treatment, Bright Glo luminescence; read-out: NF-kB inhibition IC50. Summed up: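 HEK-293-NF-κB-Luc cells stably overexpressing MALT1 were seeded overnight, then exposed to test compounds for 24 h. Bright Glo added 10 min at ambient temperature and luminescence read; % inhibition calculated against 0.1% DMSO controls.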
In general terms: A reporter such as luciferase makes a cellular process visible.

For another experiment, the system named is OCI-Ly-10 cells. The experiment in a line: Anticancer assay (14 days), cell viability by CCK-8. Conditions: Homo sapiens, OCI-Ly10, 336 h, 14 days treatment, fresh treatment every 5th day, CCK-8 viability, read-out: Ly-10 (14d) inhibition IC50. The class given is cell-based. Summed up: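 OCI-Ly-10 cells in IMDM + 20% FBS exposed to compound for 13–15 days, with media and compound refreshed every 5th day. Viability by CCK-8 absorbance at 450 nm (650 nm background); % inhibition versus 0.1% DMSO medium control.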

The target in a further experiment is T1, full length MALT1 enzyme (Homo sapiens, UniProt Q9UDY8).
T1 construct: a fluorescence based assay with full length MALT1 enzyme
T1 sequence (Q9UDY8 1-824): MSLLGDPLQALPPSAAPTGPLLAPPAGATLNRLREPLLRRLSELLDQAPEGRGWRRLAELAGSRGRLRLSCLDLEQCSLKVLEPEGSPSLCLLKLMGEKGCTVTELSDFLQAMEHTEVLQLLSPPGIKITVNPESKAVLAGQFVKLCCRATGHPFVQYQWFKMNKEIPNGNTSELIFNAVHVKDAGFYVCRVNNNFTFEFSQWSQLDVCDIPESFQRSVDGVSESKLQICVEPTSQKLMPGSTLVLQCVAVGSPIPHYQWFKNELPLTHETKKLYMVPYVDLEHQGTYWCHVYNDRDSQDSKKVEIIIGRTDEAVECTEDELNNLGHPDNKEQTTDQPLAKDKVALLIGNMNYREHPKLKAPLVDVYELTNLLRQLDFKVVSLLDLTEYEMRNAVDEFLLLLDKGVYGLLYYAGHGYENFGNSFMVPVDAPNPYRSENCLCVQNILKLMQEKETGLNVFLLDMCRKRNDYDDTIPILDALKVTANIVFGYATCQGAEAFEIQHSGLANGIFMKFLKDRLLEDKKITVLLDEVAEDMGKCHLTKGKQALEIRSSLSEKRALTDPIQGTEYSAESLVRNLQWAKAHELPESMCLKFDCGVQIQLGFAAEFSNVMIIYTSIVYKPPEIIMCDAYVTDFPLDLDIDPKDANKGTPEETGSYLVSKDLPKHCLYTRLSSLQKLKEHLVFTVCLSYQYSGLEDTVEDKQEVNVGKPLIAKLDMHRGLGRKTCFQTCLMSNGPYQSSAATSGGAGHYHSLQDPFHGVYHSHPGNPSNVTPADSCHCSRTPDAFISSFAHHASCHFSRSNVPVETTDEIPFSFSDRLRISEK
Kind of experiment: MALT1 biochemical assay (fluorescence based, Ac-Leu-Arg-Ser-Arg-AMC cleavage). Conditions: full length MALT1 protein, 2 h pre-incubation at RT, tetrapeptide substrate Ac-Leu-Arg-Ser-Arg-AMC, read-out: Malt 1 inhibition IC50. Summed up: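 Full-length MALT1 (100-300 ng/well) was pre-incubated with compound for 2 h at RT, then 100 μM Ac-LRSR-AMC was added for 4-12 h. Buffer was 50 mM MES, 150 mM NaCl, 0.1% CHAPS, 1 M ammonium citrate, 10 mM DTT, pH 7, with 0.5% DMSO. IC50 was derived from AMC fluorescence (ex 360/em 460 nm).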

In the case of `Cc1nc2c(C3(CF)CC3)c(NC(=O)Nc3ccc(-n4nccn4)c(Cl)c3)cnc2s1` [Compound 107, 1-(3-Chloro-4-(2H-1,2,3-triazol-2-yl)phenyl)-3-(7-(1-(fluoromethyl)cyclopropyl)-2-methylthiazolo[5,4-b]pyridin-6-yl)urea], the IC50 lay in the range of 1 to 100 nM in experiment [1], 101 to 250 nM in the experiment with OCI-Ly-10 cells and 1 to 50 nM on full length MALT1 enzyme.
In the case of `Cc1nc2c(C(C)C)c(NC(=O)Nc3cnc(-n4nccn4)c(Cl)c3)cnc2s1` [Compound 115, 1-(5-Chloro-6-(2H-1,2,3-triazol-2-yl)pyridin-3-yl)-3-(7-isopropyl-2-methylthiazolo[5,4-b]pyridin-6-yl)urea], the IC50 in experiment [1] fell in the range of 1 to 100 nM; with OCI-Ly-10 cells, 26 to 100 nM; at full length MALT1 enzyme, 1 to 50 nM.
As to `COc1ncc(NC(=O)Nc2cnc3sc(C)nc3c2C(C)C)cc1Cl` [Compound 119, 1-(5-Chloro-6-methoxypyridin-3-yl)-3-(7-isopropyl-2-methylthiazolo[5,4-b]pyridin-6-yl)urea], the results for the IC50 (in experiment [1]; in the experiment with OCI-Ly-10 cells; at full length MALT1 enzyme) were 101 to 500 nM, 251 to 500 nM and 1 to 50 nM, respectively.
Take `Cc1nc2c(C3CC3)c(NC(=O)Nc3ccc(-n4nccn4)c(Cl)c3)cnc2s1` [Compound 168, 1-(3-Chloro-4-(2H-1,2,3-triazol-2-yl)phenyl)-3-(7-cyclopropyl-2-methylthiazolo[5,4-b]pyridin-6-yl)urea]: the results for the IC50 (in experiment [1]; in the experiment with OCI-Ly-10 cells; at full length MALT1 enzyme) were 501 to 1500 nM, 251 to 500 nM and 1 to 50 nM, respectively.
Turning to `COc1ncc(Cl)cc1NC(=O)Nc1cnc2sc(C)nc2c1C1CC1` [Compound 192, 1-(5-Chloro-2-methoxypyridin-3-yl)-3-(7-cyclopropyl-2-methylthiazolo[5,4-b]pyridin-6-yl)urea], the IC50 lay in the range of 101 to 500 nM in experiment [1], 501 to 1500 nM in the experiment with OCI-Ly-10 cells and 51 to 100 nM on full length MALT1 enzyme.
Take `Cc1nc2c(C3(CO)CC3)c(NC(=O)Nc3cnc(-n4nccn4)c(C(F)(F)F)c3)cnc2s1` [Compound 223, 1-(6-(2H-1,2,3-Triazol-2-yl)-5-(trifluoromethyl)pyridin-3-yl)-3-(7-(1-(hydroxymethyl)cyclopropyl)-2-methylthiazolo[5,4-b]pyridin-6-yl)urea]: the results for the IC50 (in experiment [1]; with OCI-Ly-10 cells; on full length MALT1 enzyme) were 1 to 100 nM, 251 to 500 nM and 1 to 50 nM, respectively.
